Data from patent US7838674B2, “Tetracyclic lactame derivatives” (Novartis AG, priority 2007, dated 2010).
Counter-ions that a name gives are not always drawn.

How the values were obtained:
[1] = test system: TNF-α release from hPBMCs; experiment: Assay for inhibition of TNF-α release from hPBMCs (IFNγ/LPS stimulated); type: cell-based; conditions: Homo sapiens, IFNγ (10 ng/ml) and LPS (5 μg/ml), 3 h
Protocol: Assay for Inhibition of TNF-α Release from hPBMCs
Human peripheral blood mononuclear cells (hPBMCs) are prepared from the peripheral blood of healthy volunteers using Ficoll-Plaque Plus (Amersham) density separation according to the method described within. Cells are seeded at a 1×10^5 cells/well in 96-well plates in RPMI 1640 medium (Invitrogen) containing 10% (v/v) fetal calf serum (FCS). Cells are pre-incubated with serial dilutions of test compound (0.25% v/v DMSO final) for 30 min at 37° C. Cells are stimulated with the addition of IFNγ (10 ng/ml) and lipopolysaccharide(LPS) (5 μg/ml) per well and incubated for 3 h at 37° C. Following a brief centrifugation (250×g for 2 min), supernatant (10 μl) samples are taken from each well and measured against a TNFα calibration curve using a HTRF TNFα kit (CisBio) as described within.
Using the TNF-α release assay described above, compounds of the formula I can be shown to have the following inhibition values: […]

human MK2 = human MK2 (Homo sapiens, UniProt P49137); experiment: MAPKAPK2 kinase assay (TR-FRET, Hsp27 peptide substrate)
[2] = biological target: T1, MAPKAPK2 enzyme (HIS-MK2, Invitrogen PV4019) (Homo sapiens, UniProt P49137); experiment: Alternative MAPKAPK2 assay (Caliper microfluidic mobility shift, HSP27-peptide); type: biochemical; conditions: HIS-MK2 0.013 nM, ATP 10 μM, 60 min at 30° C.
T1 construct: His; purchased Invitrogen PV4019
T1 sequence (P49137 whole entry): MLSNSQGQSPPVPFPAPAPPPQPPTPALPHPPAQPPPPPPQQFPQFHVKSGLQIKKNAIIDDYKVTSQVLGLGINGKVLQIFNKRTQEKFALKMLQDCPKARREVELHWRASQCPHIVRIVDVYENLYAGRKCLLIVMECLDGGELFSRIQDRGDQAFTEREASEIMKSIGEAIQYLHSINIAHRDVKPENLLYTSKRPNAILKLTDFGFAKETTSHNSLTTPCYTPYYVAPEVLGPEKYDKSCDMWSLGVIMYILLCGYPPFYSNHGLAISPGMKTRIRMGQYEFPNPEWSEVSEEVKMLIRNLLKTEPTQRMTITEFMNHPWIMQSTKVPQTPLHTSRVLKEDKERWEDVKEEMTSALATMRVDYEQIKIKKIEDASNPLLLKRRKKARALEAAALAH

human MK2, sequence (P49137 whole entry): as above

Row | Structure (SMILES) | IC50 [1] | IC50 (human MK2) | IC50 [2]
1 | CN1CC2(CNC(=O)c3c2[nH]c2c3CCc3cnc(-c4ccccc4F)cc3-2)C1 [Example 172, 2-(3-Aminomethyl-1-methyl-azetidin-3-yl)-8-(2-fluoro-phenyl)-4,5-dihydro-1H-pyrrolo[2,3-f]isoquinoline-3-carboxylic acid lactam] | 347 nM |  | 
2 | COCCOc1cncc(-c2cc3c(cn2)CCc2c-3[nH]c3c2C(=O)NCC32CC2)c1 [Example 1, 2-(1-Aminomethyl-cyclopropyl)-8-[5-(2-methoxy-ethoxy)-pyridin-3-yl]-4,5-dihydro-1H-pyrrolo[2,3-f]isoquinoline-3-carboxylic acid lactame] | 320 nM | 47 nM | 
3 | CC(C)Oc1ccc(-c2cc3c(cn2)CCc2c-3[nH]c3c2C(=O)NCC32CN(C)C2)cn1 [Example 185, 2-(3-Aminomethyl-1-methyl-azetidin-3-yl)-8-(6-isopropoxy-pyridin-3-yl)-4,5-dihydro-1H-pyrrolo[2,3-f]isoquinoline-3-carboxylic acid lactam hydrochloride] | 134 nM |  | < 3 nM
4 | COc1cncc(-c2cc3c(cn2)CCc2c-3[nH]c3c2C(=O)NC2(CCC2)C3)c1 [Example 99, 2-(1-Amino-cyclobutylmethyl)-8-(5-methoxy-pyridin-3-yl)-4,5-dihydro-1H-pyrrolo[2,3-f]isoquinoline-3-carboxylic acid lactam] | 311 nM |  | 72 nM
5 | O=C1NCC2(CC2)c2[nH]c3c(c21)CCc1cnc(-c2ccc(CN4CCOCC4)c(F)c2)cc1-3 [Example 301, 2-(3-Fluoro-4-morpholin-4-ylmethyl-phenyl)-10-spirocyclopropyl-5,6,8,9,10,11-exahydro-3,8,11-triaza-benzo[a]fluoren-7-one] | 256 nM |  | 29 nM
6 | N#Cc1ccc(-c2cc3c(cn2)CCc2c-3[nH]c3c2C(=O)NCC32CC2)cn1 [Example 127, 2-(1-Aminomethyl-cyclopropyl)-8-(6-cyano-pyridin-3-yl)-4,5-dihydro-1H-pyrrolo[2,3-f]isoquinoline-3-carboxylic acid lactam] | 264 nM |  | 
7 | O=C1NCC2(CNC2)c2[nH]c3c(c21)CCc1cnc(-c2cccc(Cl)c2)cc1-3 [Example 187, 2-[3-Aminomethyl-azetidin-3-yl]-8-(3-chloro-phenyl)-4,5-dihydro-1H-pyrrolo[2,3-f]isoquinoline-3-carboxylic acid lactam hydrochloride] | 156 nM |  | < 3 nM
8 | O=C1NC2(CC2)C2(CC2)c2[nH]c3c(c21)CCc1cnc(-c2cccc(F)c2)cc1-3 [Example 195, 2-(1′-Amino-bicyclopropyl-1-yl)-8-(3-fluoro-phenyl)-4,5-dihydro-1H-pyrrolo[2,3-f]isoquinoline-3-carboxylic acid lactam] | 333 nM |  | 
9 | Cc1ccc(-c2cc3c(cn2)CCc2c-3[nH]c3c2C(=O)NC2(CCC2)C3)cn1 [Example 103, 2-(1-Amino-cyclobutylmethyl)-8-(6-methyl-pyridin-3-yl)-4,5-dihydro-1H-pyrrolo[2,3-f]isoquinoline-3-carboxylic acid lactam] | 336 nM |  | 57 nM
10 | COc1ccc(-c2cc3c(cn2)CCc2c-3[nH]c3c2C(=O)NC2(CC2)C3)cc1 [Example 40, 2-(1-Amino-cyclopropylmethyl)-8-(4-methoxy-phenyl)-4,5-dihydro-1H-pyrrolo[2,3-f]isoquinoline-3-carboxylic acid lactam] | 220 nM |  | 
11 | COc1ccc(-c2ncc3c(n2)-c2[nH]c4c(c2CC3)C(=O)NCC42CN(C)C2)cc1 [Example 207, 2-(3-Aminomethyl-1-methyl-azetidin-3-yl)-8-(4-methoxy-phenyl)-4,5-dihydro-1H-1,7,9-triaza-cyclopenta[a]naphthalene-3-carboxylic acid lactam] | 130 nM |  | 
